Reference: patent US20230099031A1, “BIFUNCTIONAL AGENTS FOR PROTEIN RECRUITMENT AND/OR DEGRADATION” (Orionis Biosciences, Inc., priority 2019, published 2023)
Like-named read-outs stand apart in the source and are kept apart here.

Legend:
Assay type in all cases: cell-based
[1] = tested on: IKZF1, ASS1 and SALL4; test: Recruitment assessment: recruitment of any tested substrate from among IKZF1, ASS1 and SALL4 (MAPPIT-like recruitment assays); conditions: any tested substrate among IKZF1, ASS1, SALL4 at any tested concentration
[2] = target: T1, IKZF1 (Homo sapiens, UniProt Q13422+Q96SW2); test: Recruitment Assay (MAPPIT-like): IKZF1 recruitment, pSEL-CRBN+pMG1-IKZF1(isoform 7); conditions: recruitment of IKZF1, protocol of Example 2; read-out: EC50_IKZF1
T1 construct: expressed in transfected cells; host or cells: HEK293T
Method: (§1) In this experimental set-up, cells are transfected with a construct encoding a CRBN-fusion protein and another one encoding a substrate-fusion protein. Test compound activity is assessed with increasing concentrations of test compounds (dose-response studies) to monitor the ability to promote CRBN-ligand-induced protein interaction.
(§2) Full size proteins are fused for each of the target proteins tested, except in the case of IKZF1 where isoform 7 is used, and BRD4, where isoform 3 is applied. For the study, the following construct combinations are used: IKZF1 recruitment: pSEL-CRBN+pMG1-IKZF1(isoform 7); ASS1 recruitment: pSEL-CRBN+pMG1-ASS1; SALL4 recruitment: pSEL-SALL4+pMG1-CRBN; DHFR recruitment: pCLG-DHFR+pMG1-CRBN; ESR1 recruitment: pSEL-CRBN+pMG1-ESR1; BRD4 recruitment: pSEL-CRBN+pMG1-BRD4(isoform 3). Cells are treated with erythropoietin (Epo; where pSEL-type receptor fusions constructs are used) or leptin (in the case pCLG-type receptor fusion constructs are applied) without or with the indicated dose of test compound at 24 hours after transfection. Luciferase activity is measured 24 hours after test compound treatment using the Luciferase Assay System kit (PROMEGA, Madison, Wis.) with an Ensight plate reader (PERKIN ELMER LIFE SCIENCES, Waltham, Mass.). Data points depict fold induction of the average luciferase activity of triplicate samples from Epo or leptin+test compound treated cells versus Epo or leptin only treated cells. Error bars represent standard deviations. Curves are fit using 4-parameter nonlinear regression in […] PRISM software.

[3] = target: T2, CRBN (Homo sapiens, UniProt Q96SW2); test: Competition Assay: MAPPIT-like, competition with trimethoprim-lenalidomide hybrid ligand for binding to CRBN in HEK293T cells
T2 construct: expressed in transfected cells; host or cells: HEK293T

[4] = target: T3, ASS1 (Homo sapiens, UniProt P00966+Q96SW2); test: Recruitment Assay (MAPPIT-like): ASS1 recruitment, pSEL-CRBN+pMG1-ASS1; conditions: recruitment of ASS1, protocol of Example 2; read-out: EC50_ASS1
T3 construct: Full size proteins are fused for each of the target proteins tested; expressed in transfected cells; host or cells: HEK293T
Method: as §1, §2

[5] = target: T4, ESR1 (Homo sapiens, UniProt P03372+Q96SW2); test: Recruitment Assay (MAPPIT-like): ESR1 recruitment, pSEL-CRBN+pMG1-ESR1; conditions: HEK293T cells, luciferase 24 hours after compound treatment; read-out: Recruitment EC50 (M), target protein ESR1
T4 construct: Full size proteins are fused for each of the target proteins tested; expressed in transfected cells; host or cells: HEK293T
Method: as §1, with “In this Example 2, a similar MAPPIT-like assay is applied as described in Example 1 to determine test compound-induced binding of a particular substrate protein of interest to CRBN. In” for “In”
Specifically, HEK293T cells are transfected with a plasmid encoding the MAPPIT receptor fusion wherein the protein of interest (CRBN or substrate protein) is genetically linked to a cytoplasmic domain of the leptin receptor, which itself is fused to the extracellular domain of the erythropoietin (Epo) receptor (pSEL-X, where X represents either CRBN or any of the tested substrate proteins of interest) or to the extracellular domain of the leptin receptor (pCLG-X, where X represents either CRBN or any of the tested substrate proteins of interest), a plasmid encoding the MAPPIT gp130 fusion (pMG1-Y, Y being either any of the tested substrate proteins or CRBN) and a STAT3-responsive luciferase-encoding reporter plasmid (pXP2d2-rPAPI-luciferase reporter plasmid), as described (Lievens, et al. “Array MAPPIT: high-throughput interactome analysis in mammalian cells.” Journal of Proteome Research 8.2 (2009): 877-886). Full size proteins are fused for each of the target proteins tested, except in the case of IKZF1 where isoform 7 is used, and BRD4, where isoform 3 is applied. […] Luciferase activity is measured 24 hours after test compound treatment using the Luciferase Assay System kit (PROMEGA, Madison, Wis.) with an Ensight plate reader (PERKIN ELMER LIFE SCIENCES, Waltham, Mass.). […]

[6] = protocol and reagents of Example 1, read-out: IC50 Competition
[7] = HEK293T cells, 300 nM trimethoprim-lenalidomide hybrid ligand, luciferase 24 hours after compound treatment, read-out: Competition IC50

Structure (SMILES) | Recruitment Assessment [1] | EC50 [2] [nM] | IC50 [3, 6] [nM] | EC50 [4] [nM] | IC50 [3, 7] [nM] | EC50 [5] [M]
Cc1ccc(NC(=O)NCc2ccc3c(c2)CN(C2CCC(=O)NC2=O)C3=O)cc1Cl (stereo not drawn) [CC-885, 1-(3-chloro-4-methyl-phenyl)-3-[[2-(2,6-dioxo-3-piperidyl)-1-oxo-isoindolin-5-yl]methyl]urea, reference compound] | TRUE | < 13.7 | 0.465 | 80.1 | – | –
CC/C(=C(\c1ccccc1)c1ccc(OCCN(C)CC(=O)NCCOCCOCCOCCOCCNC(=O)COc2cccc3c2CN(C2CCC(=O)NC2=O)C3=O)cc1)c1ccccc1 (stereo not drawn) [Compound 5.53] | – | – | – | – | 1390 | 7.35e-07
CC/C(=C(\c1ccccc1)c1ccc(OCCN(C)CC(=O)NCCOCCOCCNC(=O)COc2cccc3c2CN(C2CCC(=O)NC2=O)C3=O)cc1)c1ccccc1 (stereo not drawn) [Compound 5.54] | – | – | – | – | 838 | 1.35e-07
CC/C(=C(\c1ccccc1)c1ccc(OCCN(C)CC(=O)NCCOCCOCCOCCNC(=O)COc2cccc3c2CN(C2CCC(=O)NC2=O)C3=O)cc1)c1ccccc1 (stereo not drawn) [Compound 5.55] | – | – | – | – | 1050 | 4.42e-07
O=C1CCC(N2Cc3ccc(NC(=O)c4cnc5[nH]cnc5c4)cc3C2=O)C(=O)N1 (stereo not drawn) [Compound C80394, N-[2-(2,6-dioxo-3-piperidyl)-3-oxo-isoindolin-5-yl]-3H-imidazo[4,5-b]pyridine-6-carboxamide] | TRUE | – | 7990 | – | – | –
